Results reported in paper PMC12667295, “A surrogate barrier model for high-throughput blood-brain barrier permeability prediction: integrating LLC-PK1-MOCK/MDR1 Cells and lysosomal trapping correction” (Drug Delivery, 2025).
Where “and” joins values, the source holds several entries; their conditions need not be identical. Equal entries are not always repeated. Where two headings read alike, the source gives them in different places.

How the values were obtained:
[1] = system: P-gp (human MDR1); assay: Bidirectional transport across LLC-PK1-MDR1 monolayer stably expressing human MDR1 (P-gp) (Transwell); details: pig;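 note: 2 h incubation at 37 °C, receiver HBSS with 10 mM Hepes plus 1% BSA, LC-MS/MS of donor and receiver, recovery as receiver plus donor amount over initial donor amount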
Procedure: (§3) The overexpression and functional activity of P-glycoprotein (P-gp) in the LLC-PK1-MDR1 cells were rigorously validated through multiple methods.
(§4) Cells were passaged at 80−90% confluence (every 2−3 days) using trypsin-EDTA solution. […] The culture medium was replaced every other day, including 200 µL culture medium in the apical and 850 µL cell culture medium in the basolateral side. LLC-PK1 MOCK cells were used at passages of 3−30. LLC-PK1-MDR1 cells were cultured and passaged in the same manner as LLC-PK1 cells except at the density of 1 × 10^4 cells per well. LLC-PK1-MDR1 cells were used at passages of 3−25. For LLC-PK1 MOCK cells and LLC-PK1-MDR1 cells, the experiments were performed on the 4th and 7th day after seeding.
(§5) Monitoring permeability of positive control drugs. […] Samples were collected from the donor well at the start of the incubation (50 µL) as C0, and from the donor and receiver wells at the end of the incubation (50 µL). All samples were stored at - 40 °C for LC-MS/MS analysis.
(§6) Bidirectional transport experiments. […] The transwell experiments were conducted following above-mentioned procedure. […] When the recovery rate of the tested drug is below 80%, the possibility of intracellular accumulation should be considered. The polycarbonate (PC) membrane where cells are grown should be carefully peeled off from the cell culture medium and placed in 100 µL of HBSS buffer solution. […] The process was carried out on ice to prevent heat-induced degradation, applying a power in the range of 300 W for a total duration of 20 minutes. Thereafter, a quantitative analysis of the intracellular drug was conducted, and the drug recovery rate was recalculated based on this analysis.
(§7) The apparent permeability coefficient (Papp, cm/s) was calculated for each transport direction, A-B and B-A, using the following equation: Papp=dQ/dt×1/A×C0 where dQ/dt is the permeation rate (µmol/s), A is the surface area of the insert (0.33 cm^2, Corning), and C0 is the initial donor concentration (µM).
(§8) The efflux ratio (ER) is calculated as the ratio of Papp (B-A)/Papp (A-B). Recovery=TRcumrf+Cdf×VD/Cdi×VD×100% Where TRcumrf is the cumulative transported mass in the receiver chamber at the end of the incubation (nmol), Cdf is the concentration of the drug in the donor chamber at the end of the incubation (μM), VD is the volume of the donor chamber (mL), and Cdi is the initial concentration of the drug in the donor chamber (μM).
(§9) The method of the bidirectional transport experiment was the same as before.

[2] = cited from earlier work
[3] = in vitro; details: rat, brain homogenate
Procedure: (§1) Stocks (10 mM) of test compounds were diluted to 5 μM with plasma or tissue homogenate and dialyzed at 37 °C for 6 hours in a shaking incubator. After incubation aliquots of both plasma or tissue homogenate and buffer from the device were taken and added to equal volumes of blank buffer and plasma or tissue homogenate respectively. Samples were then diluted in acetonitrile containing an internal standard prior to centrifugation and analysis of the supernatants by LC-MS/MS. The fu, plasma was calculated using Equation 1:(1) fu,plasma=Concbuffer chamber/Concsample chamber
Rat fraction unbound in brain (fu, brain) was determined as the ratio of concentration in buffer to that in brain.
(§2) Unbound fractions of test drugs in plasma (fu,plasma) and brain tissue (fu,brain). For compounds with existing rat plasma or brain protein-binding data from literature or internal studies, values were directly adopted.

[4] = footnote b, species not stated; ref https://go.drugbank.com; cited from earlier work
[5] = in vivo; details: rat
Description: In vivo unbound brain distribution data (Kp,uu,Brain) for 16 drugs and total brain distribution data (Kp,Brain) for 16 drugs was acquired from literature. […] For each tested compound, fifteen rats were randomly divided into five groups of three rats each. […] The time of execution of the rats by CO2 inhalation after administration was optimized according to the in vivo elimination rate to achieve five concentrations of different time points. After the rats were euthanized, cardiac puncture was performed immediately to remove as much whole blood as possible (~7 ml) from the systemic circulation (Quantitatively aliquot 0.2 ml of whole blood for the determination of drug concentration in plasma). Afterwards, the brain tissue was collected immediately and rinsed repeatedly with ice-cold saline 3 times. Then, the surface saline was blotted dry with clean filter paper to remove as much residual drug in the blood vessels as possible. Plasma samples were prepared by centrifugation of the blood samples at 2,500 g for 10 minutes at 4 °C. All brain samples were homogenized by adding 4-fold volume water. All samples were stored at -40 °C before LC-MS/MS analysis. […] The brain tissue partition coefficient (Kp, brain) and brain-to-plasma unbound drug partition ratio (Kp,uu, brain) are calculated according to the following formulas, respectively: Kp,brain=AUC(0−∞,brain)/AUC(0−∞,plasma)Kp,uu,brain=Kp,brain×(fu,tissue/fu,plasma)
Free brain-to-plasma distribution coefficients (Kp,uu,brain) of 41 drugs. Brain distribution coefficients (Kp,uu,brain) were calculated for 41 drugs. […] Plasma and brain concentration-time profiles were generated, and AUC(0-t) values for both matrices were calculated using WinNolin 8.1. Kp,brain was derived as the ratio of brain-to-plasma AUC(0-t).
Kp,uu,brain values were computed by normalizing Kp,brain to unbound fractions (fu,plasma and fu,brain).

[6] = in vitro; details: pig, LLC-PK1 MOCK cell monolayer (Transwell), pH 7.4
Procedure: as §4
(§10) Samples were collected from the donor well at the start of the incubation (50 µL) as C0, and from the donor and receiver wells at the end of the incubation (50 µL). All samples were stored at - 40 °C for LC-MS/MS analysis.
as §6, §7, §8, §9

[7] = system: P-gp (human MDR1); assay: in vitro; details: pig, LLC-PK1, pH 7.4
Procedure: as §3, §4, §5, §6, §7, §8, §9

[8] = Bidirectional transport across LLC-PK1 MOCK monolayer (Transwell); details: pig; for recovery at 2 h, 2 µM: pH 7.4, Recovery after correction of intracellular accumulation data, cell lysate included, mean±SD, n=3;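 for all read-outs here: compound quantified by LC-MS/MS in donor and receiver wells, efflux ratio as B-A over A-B Papp, recovery relative to initial donor amount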
Procedure: as §4, §10, §6, §7, §8, §9

[9] = in vitro; details: rat, plasma
Procedure: as §1, §2

[10] = parameters: method as in not given; details: stated without method; ref not given; cited from earlier work
[11] = LLC-PK1 MOCK/MDR1 monolayer model, results stated for both cell lines jointly; details: pig
Procedure: Monitoring of TEER value and LY permeability. After the LLC-PK1 MOCK/MDR1 cells attach to the Transwell insert, TEER (Transepithelial Electrical Resistance) values were continuously recorded using a cell resistance meter (Beijing JINGONGHONGTAI Technology Co., Ltd). These TEER values represent the mean from six individual inserts (n = 6) measured per group. The TEER measurement and transport experiment were conducted at 37 °C, using a heating plate to maintain the required temperature. The transmembrane resistance was calculated using the formula TEER = (Rtotal-Rblank) × Aarea, where Rblank represents the TEER of the blank chamber.
The permeability of the Lucifer Yellow CH Dipotassium Salt (LY, 100 μM) across the monolayers was measured in apical-to-basolateral direction to monitor the integrity of the cell monolayer.
Bidirectional transport experiments. […] The transwell experiments were conducted following above-mentioned procedure.

[12] = system: LLC-PK1 MOCK cells; assay: Bidirectional transport across LLC-PK1 MOCK monolayer (Transwell); details: LLC-PK1 MOCK, 2 µM, 2 h, mean ± s, n = 3; BLQ = below 2 nM;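 note: compound quantified by LC-MS/MS in donor and receiver wells, efflux ratio as B-A over A-B Papp, recovery relative to initial donor amount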
Procedure: as §4, §10, §6, §7, §8, §9

[13] = system: LLC-PK1-MDR1 cells
Procedure: as §3, §4, §5, §6, §7, §8, §9

[14] = LLC-PK1, pH 7.4, Papp A-B, LLC-PK1 MOCK, 2 µM, 2 h, mean ± s, n = 3, BLQ = below 2 nM
[15] = LLC-PK1, pH 7.4, ER, LLC-PK1-MDR1, Papp (B-A)/Papp (A-B)
[16] = LLC-PK1, pH 7.4, Papp A-B, LLC-PK1-MDR1, 2 µM, 2 h, mean ± s, n = 3
[17] = LLC-PK1 MOCK and LLC-PK1-MDR1 cell monolayers (Transwell), pH 7.4, Recovery after cell lysate extraction, intracellular drug included
[18] = LLC-PK1 MOCK and LLC-PK1-MDR1 cell monolayers (Transwell), pH 7.4, Recovery, bidirectional transport, uncorrected
[19] = LLC-PK1 MOCK and LLC-PK1-MDR1 cell monolayers (Transwell), pH 7.4, with bafilomycin A1 1 µM (inhibitor of lysosomal function), Recovery, with 1 µM Bafilomycin A1, bidirectional transport
[20] = LLC-PK1, pH 7.4, ER, LLC-PK1 MOCK, Papp (B-A)/Papp (A-B)
[21] = LLC-PK1 MOCK cell monolayer (Transwell), B-A, LLC-PK1 MOCK

Compound	Papp B→A at 2 h, 2 µM ([1]; LLC-PK1, pH 7.4) [×10⁻⁶ cm/s]	fraction unbound at 6 h, 5 µM [3]	recovery at 2 h, 2 µM [6] [%]	Papp B→A at 2 h, 2 µM ([8]; LLC-PK1, pH 7.4) [×10⁻⁶ cm/s]	Papp A→B at 2 h, 2 µM [8, 14] [×10⁻⁶ cm/s]	efflux ratio at 2 h, 2 µM [1, 15]	Papp A→B at 2 h, 2 µM [1, 16] [×10⁻⁶ cm/s]	fraction unbound at 6 h, 5 µM [9]	recovery at 2 µM [11, 17] [%]	recovery at 2 µM [11, 18] [%]	recovery at 2 µM [11, 19] [%]	recovery at 2 h, 2 µM [8, 21] [%]	Papp A→B at 2 h, 2 µM ([1]; LLC-PK1, pH 7.4) [×10⁻⁶ cm/s]	Kp uu [5]	recovery at 2 h, 2 µM [7] [%]	pKa [10]	efflux ratio at 2 h, 2 µM [8, 20]	other results
COCCOC(=O)C1=C(C)NC(C)=C(C(=O)OC(C)C)C1c1cccc([N+](=O)[O-])c1 (centres unmarked) [Nimodipine]	44.5 ± 5.11	< 0.01	109 ± 7.08	46.2 ± 1.79	33.7 ± 2.08								32.2 ± 1.83	< 0.451	114 ± 5.22			efflux ratio at 2 h, 2 µM ([1]; LLC-PK1, pH 7.4): 1.39; Kp, Brain ([2]; ref Li [2020]): 2.25; Protein binding in plasma [4]: 95.0^b %; efflux ratio at 2 h, 2 µM ([8]; LLC-PK1, pH 7.4): 1.37
COc1ccc2cc1Oc1ccc(cc1)C[C@H]1c3cc(c(OC)cc3CCN1C)Oc1c(OC)c(OC)cc3c1[C@H](C2)N(C)CC3 [Tetrandrine]	13 ± 2.24			4.19 ± 0.77		8.4							1.55 ± 0.29			> 7	1.33	Kp, Brain ([2]; ref Wang [2024]): 24.3; Kp,uu,Brian ([2]; ref Wang [2024]): 0.80; recovery at 2 µM ([11]; pH 7.4, Recovery after cell lysate extraction, intracellular drug included): > 80%; recovery at 2 µM ([11]; pH 7.4, Recovery, bidirectional transport, uncorrected): < 80%; recovery at 2 µM ([11]; pH 7.4, Recovery, with 1 µM Bafilomycin A1, bidirectional transport): 80 to 120%; Papp A→B at 2 h, 2 µM ([8]; LLC-PK1, pH 7.4): 3.15 ± 0.23 ×10⁻⁶ cm/s; recovery at 2 h, 2 µM ([8]; A-B, LLC-PK1 MOCK): 54.1 ± 7.24%; recovery at 2 h, 2 µM ([8]; B-A, LLC-PK1 MOCK): 93.5 ± 6.72%

Second part, led by results:

Papp B→A at 2 h, 2 µM ([1]; LLC-PK1, pH 7.4) [×10⁻⁶ cm/s]	fraction unbound at 6 h, 5 µM [3]	recovery at 2 h, 2 µM [6] [%]	Papp B→A at 2 h, 2 µM ([8]; LLC-PK1, pH 7.4) [×10⁻⁶ cm/s]	Papp A→B at 2 h, 2 µM [8, 14] [×10⁻⁶ cm/s]	efflux ratio at 2 h, 2 µM [1, 15]	Papp A→B at 2 h, 2 µM [1, 16] [×10⁻⁶ cm/s]	fraction unbound at 6 h, 5 µM [9]	recovery at 2 µM [11, 17] [%]	recovery at 2 µM [11, 18] [%]	recovery at 2 µM [11, 19] [%]	recovery at 2 h, 2 µM [8, 21] [%]	Compound	Papp A→B at 2 h, 2 µM ([1]; LLC-PK1, pH 7.4) [×10⁻⁶ cm/s]	Kp uu [5]	recovery at 2 h, 2 µM [7] [%]	pKa [10]	efflux ratio at 2 h, 2 µM [8, 20]	other results
10.9 ± 0.35	< 0.01	54.1 ± 1.86	14.8 ± 0.57	7.65 ± 0.2	2.11	5.15 ± 0.55	0.021	> 80	< 80	80 to 120	92.7 ± 4.03	Fc1ccc([C@@H]2CCNC[C@H]2COc2ccc3c(c2)OCO3)cc1 [Paroxetine]				> 7	1.93	Kp, Brain ([2]; ref O’Brien et al. [2012]): 3.307; Kp ([5]; Kp,uu,Brian): 1.57; recovery at 2 h, 2 µM ([8]; LLC-PK1 MOCK cell monolayer (Transwell), A-B, LLC-PK1 MOCK): 97.6 ± 1.99%
2.66 ± 0.21	0.315	98.1 ± 2.21	0.21 ± 0.02		1.42	1.88 ± 0.35	0.78					CC(C)(C)NCC(O)c1ccc(O)c(CO)c1 (centres unmarked) [Salbutamol]		0.01	98.2 ± 0.36			Kp, Brain ([2]; footnote a, ref Internal data): 0.021^a; Papp A-B [12]: BLQ
21.8 ± 1.08	< 0.01		6.21 ± 0.2	9.31 ± 0.74		2.23 ± 0.21	0.017	> 80	< 80	80 to 120	89.2 ± 8.92	CCN(CC)CCNC(=O)c1c(C)[nH]c(/C=C2\C(=O)Nc3ccc(F)cc32)c1C [Sunitinib]				> 7		Kp ([5]; SD, iv, 1 mg/kg, Kp, Brain): 0.965; Kp ([5]; SD, iv, 1 mg/kg, Kp,uu,Brian): 0.563; recovery [13]: 116% and 97%
